In article PMC12188386, “Selective CBP/EP300 Bromodomain Inhibitors: Novel Epigenetic Tools to Counter TNF-α-Driven Inflammation” (JACS Au, 2025):

Experiments:
[1] = tested on: rmTNF-α-induced cytokines in the popliteal lymph node; assay: TNF-α induced inflammation model, cytokines in pLN (LEGENDplex); assay type: in vivo, mouse; conditions: mice, 5 h post-rmTNF-α; for concentrations of IL-1β, MCP-1, IL-1α and IL-6 in the pLN: CAPTISOL solutions s.c. (footpad) and i.p. 90 min after rmTNF-α, vs rmTNF-α + CAPTISOL
Description: C57BL/6 mice were bred in -house or acquired from Charles River Laboratories. Mice were maintained in specific pathogen -free facilities at the Institute for Research in Biomedicine, Bellinzona. Experiments were performed following the Swiss Federal Veterina ry Office guidelines and authorized by the relevant institutional committee of the Cantonal Veterinary (Commissione cantonale per gli esperimenti sugli animali, Ticino) .
TNF-α induced inflammation model
Recombinant Mouse TNF-α (rmTNF-α) (aa 80-235) Protein (Cat# 410-MT-050/CF) was purchased from RnDsystems® and resuspended following instruction into sterile PBS. Mice were anesthetized with isoflurane and 300 ng of rmTNF-α was administered subcutaneously in the footpad (10 µL injection volume), and for the experiments with the CBP/EP300 inhibitors an additional 300 ng of rmTNF-α was also administered intraperitoneally (100 µL injection volume). After 1.5 h, mice were injected with 10 µL of the prepared CAPTISOL […]
foodpad and also intraperitoneally (for i.p. injection, the 10 µL of CAPTISOL solution was diluted to a final volume of 100 µL using PBS). Organs were collected 5 h after TNF-α […]
LEGENDPlexTM assays (Mouse Pro-inflammatory Chemokine Panel and Mouse Inflammation Panel; Biolegend) were performed to monitor cytokine/chemokine expression. Briefly, popliteal LNs were collected and carefully disrupted in […] ice-cold phosphate buffer, minimizing cell rupture. The suspension was centrifuged at 1,500 rpm for 5 min, and the […]
supernatant was c ected. μ supernatant was used f r the pr t c f win the manufacturer’s instructi ns. amp es were ana zed f w c t metr n an rtessa Biosciences), and data was analyzed using LEGENDPlex software (BioLegend).
Popliteal LNs were collected, disrupted with tweezers, and digested for 10 min at 37°C in an enzyme mix composed of DNase I (0.28 mg/mL, Amresco), dispase (1 U/mL, Corning), and collagenase P (0.5 mg/mL, Roche) in calcium- and magnesium-free PBS (PBS-, Sigma-Aldrich) followed by a stop solution composed of 2 mM EDTA (Sigma -Aldrich) and 2% heat-inactivated filter-sterilized fetal calf serum (Thermo Fisher Scientific) in PBS -. […] Where indicated, intracellular staining was performed using Intracellular Fixation and Permeabilization Buffer Set (eBioscience), following the manufacturer’s instructi ns. ead ce s were exc uded u sing Zombie fixable viability dye (Biolegend), and data were analyzed using FlowJo software (TriStar Inc).
In this study, various combinations of the following fluorescence -conjugated antibodies have been used for cell-surface phen t pic stainin : α - α α […]
Data was analysed and graphs prepared using GraphPad Prism. […]

[2] = concentration in saturated 12.5% CAPTISOL solution; assay type: physicochemical; conditions: filtered 12.5 w/v% CAPTISOL in water, st. dev. between technical replicates (n=2)
Description: was used as the calibration curve. To obtain saturated solutions of the compounds of interest, in duplicates 4.4 µL of a 10 or 5 mM stock in DMSO was added to 436 µL Buffer (PBS, pH = 7.4), to give a final concentration of 100 or 50 µM. Samples were incubated on a shaker (500 rpm) at 37°C for 90 minutes and then filtered (Millex-GV 13 mm, 0.22 µm). 304 µL of the filtrate was mixed with 76 µL of acetonitrile on a dilution plate, from which 350 µL was transferred to a UV-plate and UV-absorption was read using a SpectraMax M5 (Molecular devices). The absorbance was blank-corrected and compared to the calibration curve to […]
solubility. The wavelengths used for the calibration curve are available in Table S4.
Sample preparation in CAPTISOL® […]
lower solubility (2) compounds respectively in a 12.5 w/v% CAPTISOL® solution in water. In a precisely tared vial, required amounts of compounds and CAPTISOL® were weighed out as solids. Based on the known density of 12.5 % CAPTISOL® solution (d = 1.05755 g/mL at 25 °C), the precise weight of the resulting solution and so the required amount of water by weight was calculated. The water was added portion wise with agitation, vortexing and sonication cycles in between additions. The saturated solutions were then filtered (Millex-GV 13 mm, 0.22 µm). In duplicates, aliquots of the filtrates were taken and diluted with blank 12.5 % CAPTISOL® water solution in either a 1:14 (higher sol. compounds) or 1:7 (lower sol. compounds) ratio, 350 µL was transferred to a 96-Well Plate (Greiner, UV-star) then UV absorption (240-400 nm, 10 nm steps) was measured using a SpectraMax M5 (Molecular devices). The absorption was blank-corrected, compared to the calibration curve obtained during the solubility measurement method above and finally corrected for the dilution ratio to obtain the compound concentration in the saturated 12.5 % CAPTISOL® solution. The calculated concentrations are available in Table S4.
BROMOscan™ assays (provided by Eurofins DiscoverX, US)1,2 […]
coli host derived from the BL21 strain. […]

Q: Which results are given for `Cc1cc2c(NC(=O)c3cc(NC(=O)c4ccco4)cc(-c4ccn(C)n4)c3)cccc2nn1` [Compound 2]?
A: decrease of IL-6 in the pLN compared to GNE-272 [1]: 4 fold; concentrations of IL-1β, MCP-1, IL-1α and IL-6 in the pLN [1]: significant reduction; Conc. in 12.5% Captisol sol. [2]: 160 ± 1 µM

Q: Which “decrease of IL-6 in the pLN compared to GNE-272” value [1] does the source give for `Cc1cc2c(NC(=O)c3cc(NC(=O)[C@H]4CCCO4)cc(-c4ccn(C)n4)c3)cccc2nn1` [Compound 5] here?
A: 7 fold

Q: And the “concentrations of IL-1β, MCP-1, IL-1α and IL-6 in the pLN” value [1]?
A: significant reduction

Q: What about the “Conc. in 12.5% Captisol sol.” value [2] of the same compound?
A: 790 ± 18 µM
